Laboratory results from patent publication US8206901B2, “Method for the synthesis of a bifunctional complex” (Nuevolution A/S, priority 2002, dated 2012).

What was measured:
[1] = molecular target: T1, integrin αv/βIII receptor (Homo sapiens, UniProt P05106+P06756); test: Selection of 25-member split-and-mix library on immobilised integrin αVβ3, PCR, cloning and sequencing (Example 9); assay type: binding; conditions: after selection; 18 successful sequences
T1 construct: purchased Bachem
Protocol: Maxisorp ELISA wells (NUNC A/S, Denmark) were coated with each 100 μL 2 μg/mL integrin αVβ3 (Bachem) in PBS buffer [2.8 mM NaH2PO4, 7.2 mM Na2HPO4, 0.15 M NaCl, pH 7.2] overnight at 4° C. Then the integrin solution was substituted for 200 μl blocking buffer [TBS, 0.05% Tween 20 (Sigma P-9416), 1% bovine serum albumin (Sigma A-7030), 1 mM MnCl2] which was left on for 1 hour at room temperature. Then the wells were washed 2 times with 250 μl blocking buffer and 5 μl of the encoded library was added to the wells after diluting it 20 times with blocking buffer. Following 2 hours incubation at room temperature the wells were washed with 20×250 μl blocking buffer.
After the final wash the wells were cleared of wash buffer and subsequently inverted and exposed to UV light at 300-350 nm for 30 seconds using a trans-illuminator set at 70% power.
100 μl blocking buffer without Tween-20 was immediately added to each well, the wells were shaken for 30 seconds, and the solutions containing eluted templates were removed for PCR analysis. […]
Individual E. coli clones were picked and transferred to PCR wells containing 50 μl water. Colonies were incubated at 94° C. for 5 minutes and 20 μl was used in a 25 μl PCR reaction with 5 pmol of each TOPO primer M13 forward & M13 reverse (AH365/AH366) and Ready-To-Go PCR beads (Amersham) using PCR program EKO50: 94° C. […]

αv/βIII receptor = αv/βIII receptor (Homo sapiens, UniProt P05106+P06756); conditions: cited from earlier work
Chain of αv/βIII receptor (P06756 31-889 limits assumed): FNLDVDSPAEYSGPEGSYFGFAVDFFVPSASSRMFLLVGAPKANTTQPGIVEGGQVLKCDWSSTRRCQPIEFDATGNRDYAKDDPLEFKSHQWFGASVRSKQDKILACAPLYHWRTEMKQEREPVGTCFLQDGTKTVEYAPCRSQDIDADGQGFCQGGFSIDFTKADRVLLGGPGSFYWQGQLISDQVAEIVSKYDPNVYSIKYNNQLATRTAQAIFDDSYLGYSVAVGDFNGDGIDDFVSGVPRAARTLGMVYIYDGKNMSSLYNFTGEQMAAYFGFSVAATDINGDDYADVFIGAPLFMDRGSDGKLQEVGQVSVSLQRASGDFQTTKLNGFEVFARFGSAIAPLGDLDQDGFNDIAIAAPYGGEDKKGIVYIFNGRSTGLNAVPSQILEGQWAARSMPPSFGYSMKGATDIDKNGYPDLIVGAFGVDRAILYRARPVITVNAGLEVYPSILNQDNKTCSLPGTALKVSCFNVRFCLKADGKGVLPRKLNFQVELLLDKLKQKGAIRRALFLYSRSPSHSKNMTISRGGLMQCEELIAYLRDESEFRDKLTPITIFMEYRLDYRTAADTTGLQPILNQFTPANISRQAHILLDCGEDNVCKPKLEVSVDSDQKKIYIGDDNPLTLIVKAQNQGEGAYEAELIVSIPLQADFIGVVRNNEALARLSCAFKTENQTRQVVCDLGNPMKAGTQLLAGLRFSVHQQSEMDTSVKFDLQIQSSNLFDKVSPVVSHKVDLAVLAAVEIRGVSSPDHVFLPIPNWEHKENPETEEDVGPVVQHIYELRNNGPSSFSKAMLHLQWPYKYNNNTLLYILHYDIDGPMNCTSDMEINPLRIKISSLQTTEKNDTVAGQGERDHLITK
Chain of αv/βIII receptor (P06756 891-1048 partner limits assumed): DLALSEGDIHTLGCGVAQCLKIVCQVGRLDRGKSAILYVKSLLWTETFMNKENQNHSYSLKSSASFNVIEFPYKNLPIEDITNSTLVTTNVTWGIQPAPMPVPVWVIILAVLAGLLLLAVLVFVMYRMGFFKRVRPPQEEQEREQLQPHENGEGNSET
Chain of αv/βIII receptor (P05106 27-788): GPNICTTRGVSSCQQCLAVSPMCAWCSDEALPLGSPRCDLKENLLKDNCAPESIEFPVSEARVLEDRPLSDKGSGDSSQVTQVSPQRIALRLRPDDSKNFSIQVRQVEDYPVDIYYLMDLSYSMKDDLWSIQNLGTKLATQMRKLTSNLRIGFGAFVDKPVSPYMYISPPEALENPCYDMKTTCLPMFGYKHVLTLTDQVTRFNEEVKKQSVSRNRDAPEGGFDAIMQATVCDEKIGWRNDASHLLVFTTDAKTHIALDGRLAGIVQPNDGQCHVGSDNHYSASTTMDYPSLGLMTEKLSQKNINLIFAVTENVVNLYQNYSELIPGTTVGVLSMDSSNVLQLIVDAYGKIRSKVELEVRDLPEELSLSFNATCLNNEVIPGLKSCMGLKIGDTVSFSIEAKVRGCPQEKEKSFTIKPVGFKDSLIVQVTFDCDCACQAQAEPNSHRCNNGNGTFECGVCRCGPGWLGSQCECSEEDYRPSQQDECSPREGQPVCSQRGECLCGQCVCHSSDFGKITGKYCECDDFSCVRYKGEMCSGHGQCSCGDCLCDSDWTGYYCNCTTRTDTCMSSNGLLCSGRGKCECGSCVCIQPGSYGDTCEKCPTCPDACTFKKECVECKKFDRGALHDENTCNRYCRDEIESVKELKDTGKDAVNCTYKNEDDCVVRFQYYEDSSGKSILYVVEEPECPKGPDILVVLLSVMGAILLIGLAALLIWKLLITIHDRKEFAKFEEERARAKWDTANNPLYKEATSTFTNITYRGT

T1 sequence (P06756 31-889 limits assumed): as the sequence (P06756 31-889 limits assumed) above
T1 sequence (P06756 891-1048 partner limits assumed): as the sequence (P06756 891-1048 partner limits assumed) above
T1 sequence (P05106 27-788): as the sequence (P05106 27-788) above

output sequences identifying the exact ligand [1]: 16 out of 18
Structure (SMILES): O=C(O)CC(NC(=O)CNC(=O)CCCc1ccc2c(n1)NCCC2)C(=O)O (stereo not drawn) [Feuston 5]
affinity for αv/βIII compared to the RGD-tripeptide (αv/βIII receptor): ten-fold increased affinity | Kd (αv/βIII receptor; αv/βIII): 111 nM
